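Interpolation was linear, between the two tested concentrations surrounding the appropriate level; five concentrations were tested over 48 hours in 96-well plates. TGI is the concentration that stops growth completely.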
Legend:
Assay in all cases: NCI anticancer screen, dose series, 48 h
786-0 renal = test system: 786-0 renal
A549 NSCLC = test system: A549 NSCLC
ACHN renal = test system: ACHN renal
BT-549 breast = test system: BT-549 breast
CCRF-CEM leukemia = test system: CCRF-CEM leukemia
COLO 205 colon = test system: COLO 205 colon
DU-145 prostate = test system: DU-145 prostate
EKVX NSCLC = test system: EKVX NSCLC
HCC-2998 colon = test system: HCC-2998 colon
HCT-116 colon = test system: HCT-116 colon
HCT-15 colon = test system: HCT-15 colon
HL-60(TB) leukemia = test system: HL-60(TB) leukemia
HOP-62 NSCLC = test system: HOP-62 NSCLC
HS 578T breast = test system: HS 578T breast
IGROV1 ovarian = test system: IGROV1 ovarian
K-562 leukemia = test system: K-562 leukemia
KM12 colon = test system: KM12 colon
LOX IMVI melanoma = test system: LOX IMVI melanoma
M14 melanoma = test system: M14 melanoma
MALME-3M melanoma = test system: MALME-3M melanoma
MCF7 breast = test system: MCF7 breast
MDA-MB-231 breast = test system: MDA-MB-231 breast
MDA-MB-435 = test system: MDA-MB-435
MDA-N = test system: MDA-N
MOLT-4 leukemia = test system: MOLT-4 leukemia
NCI-H23 lung = test system: NCI-H23 lung
NCI-H460 lung = test system: NCI-H460 lung
NCI-H522 lung = test system: NCI-H522 lung
NCI/ADR-RES ovarian = test system: NCI/ADR-RES ovarian
OVCAR-3 ovarian = test system: OVCAR-3 ovarian
OVCAR-8 ovarian = test system: OVCAR-8 ovarian
PC-3 prostate = test system: PC-3 prostate
RPMI-8226 leukemia = test system: RPMI-8226 leukemia
RXF 393 renal = test system: RXF 393 renal
SF-268 CNS = test system: SF-268 CNS
SF-295 CNS = test system: SF-295 CNS
SF-539 CNS = test system: SF-539 CNS
SK-MEL-2 melanoma = test system: SK-MEL-2 melanoma
SK-MEL-28 melanoma = test system: SK-MEL-28 melanoma
SK-MEL-5 melanoma = test system: SK-MEL-5 melanoma
SN12C renal = test system: SN12C renal
SNB-19 CNS = test system: SNB-19 CNS
SNB-75 CNS = test system: SNB-75 CNS
SR leukemia = test system: SR leukemia
SW-620 colon = test system: SW-620 colon
TK-10 renal = test system: TK-10 renal
U251 CNS = test system: U251 CNS
UACC-257 melanoma = test system: UACC-257 melanoma
UACC-62 melanoma = test system: UACC-62 melanoma
UO-31 renal = test system: UO-31 renal
A498 renal = test system: A498 renal
CAKI-1 renal = test system: CAKI-1 renal
HOP-92 NSCLC = test system: HOP-92 NSCLC
HT29 colon = test system: HT29 colon
NCI-H226 lung = test system: NCI-H226 lung
OVCAR-4 ovarian = test system: OVCAR-4 ovarian
OVCAR-5 ovarian = test system: OVCAR-5 ovarian
SK-OV-3 ovarian = test system: SK-OV-3 ovarian
T-47D breast = test system: T-47D breast

[N-]=[N+]=C(C(=O)N1CCCC1=O)S(=O)(=O)c1ccccc1 was tested, and the TGI (786-0 renal) was > 100 µM, the TGI (A549 NSCLC) was > 100 µM and the TGI (ACHN renal) was > 100 µM. For the same compound, the TGI (BT-549 breast) was > 100 µM, the TGI (CCRF-CEM leukemia) was > 100 µM and the TGI (COLO 205 colon) was > 100 µM. For the same compound, the TGI (DU-145 prostate) was > 100 µM, the TGI (EKVX NSCLC) was > 100 µM and the TGI (HCC-2998 colon) was > 100 µM. The TGI (HCT-116 colon) was > 100 µM, the TGI (HCT-15 colon) was > 100 µM and the TGI (HL-60(TB) leukemia) was > 100 µM. The TGI (HOP-62 NSCLC) was > 100 µM, the TGI (HS 578T breast) was > 100 µM and the TGI (IGROV1 ovarian) was > 100 µM. The TGI (K-562 leukemia) was > 100 µM, the TGI (KM12 colon) was > 100 µM and the TGI (LOX IMVI melanoma) was > 100 µM. The TGI (M14 melanoma) was > 100 µM, the TGI (MALME-3M melanoma) was > 100 µM and the TGI (MCF7 breast) was > 100 µM. The TGI (MDA-MB-231 breast) was > 100 µM, the TGI (MDA-MB-435) was > 100 µM and the TGI (MDA-N) was > 100 µM. The TGI (MOLT-4 leukemia) was > 100 µM, the TGI (NCI-H23 lung) was > 100 µM and the TGI (NCI-H460 lung) was > 100 µM. The TGI (NCI-H522 lung) was > 100 µM, the TGI (NCI/ADR-RES ovarian) was > 100 µM and the TGI (OVCAR-3 ovarian) was > 100 µM. The TGI (OVCAR-8 ovarian) was > 100 µM, the TGI (PC-3 prostate) was > 100 µM and the TGI (RPMI-8226 leukemia) was > 100 µM. For the same compound, the TGI (RXF 393 renal) was > 100 µM, the TGI (SF-268 CNS) was > 100 µM and the TGI (SF-295 CNS) was > 100 µM. For the same compound, the TGI (SF-539 CNS) was > 100 µM, the TGI (SK-MEL-2 melanoma) was > 100 µM and the TGI (SK-MEL-28 melanoma) was > 100 µM. The TGI (SK-MEL-5 melanoma) was > 100 µM, the TGI (SN12C renal) was > 100 µM and the TGI (SNB-19 CNS) was > 100 µM. The TGI (SNB-75 CNS) was > 100 µM, the TGI (SR leukemia) was > 100 µM and the TGI (SW-620 colon) was > 100 µM. For the same compound, the TGI (TK-10 renal) was > 100 µM, the TGI (U251 CNS) was > 100 µM and the TGI (UACC-257 melanoma) was > 100 µM. For the same compound, the TGI (UACC-62 melanoma) was > 100 µM and the TGI (UO-31 renal) was > 100 µM.
With CC(C)(C)OC(=O)NCC(=O)N1CCN(C(=O)CNC(=O)OC(C)(C)C)CC1 the TGI (786-0 renal) was > 100 µM, the TGI (A498 renal) was > 100 µM and the TGI (A549 NSCLC) was > 100 µM. For the same compound, the TGI (ACHN renal) was > 100 µM, the TGI (BT-549 breast) was > 100 µM and the TGI (CAKI-1 renal) was > 100 µM. The TGI (CCRF-CEM leukemia) was > 100 µM, the TGI (COLO 205 colon) was > 100 µM and the TGI (DU-145 prostate) was > 100 µM. For the same compound, the TGI (EKVX NSCLC) was > 100 µM, the TGI (HCC-2998 colon) was > 100 µM and the TGI (HCT-116 colon) was > 100 µM. The TGI (HCT-15 colon) was > 100 µM, the TGI (HL-60(TB) leukemia) was > 100 µM and the TGI (HOP-62 NSCLC) was > 100 µM. For the same compound, the TGI (HOP-92 NSCLC) was > 100 µM, the TGI (HT29 colon) was > 100 µM and the TGI (IGROV1 ovarian) was > 100 µM. The TGI (K-562 leukemia) was > 100 µM, the TGI (KM12 colon) was > 100 µM and the TGI (LOX IMVI melanoma) was > 100 µM. For the same compound, the TGI (M14 melanoma) was > 100 µM, the TGI (MCF7 breast) was > 100 µM and the TGI (MDA-MB-231 breast) was > 100 µM. The TGI (MDA-MB-435) was > 100 µM, the TGI (MDA-N) was > 100 µM and the TGI (MOLT-4 leukemia) was > 100 µM. The TGI (NCI-H226 lung) was > 100 µM, the TGI (NCI-H23 lung) was > 100 µM and the TGI (NCI-H522 lung) was 7.12 µM. For the same compound, the TGI (NCI/ADR-RES ovarian) was > 100 µM, the TGI (OVCAR-3 ovarian) was > 100 µM and the TGI (OVCAR-4 ovarian) was > 100 µM. For the same compound, the TGI (OVCAR-5 ovarian) was > 100 µM, the TGI (OVCAR-8 ovarian) was > 100 µM and the TGI (PC-3 prostate) was > 100 µM. The TGI (RPMI-8226 leukemia) was > 100 µM, the TGI (SF-268 CNS) was 39.7 µM and the TGI (SF-295 CNS) was > 100 µM. For the same compound, the TGI (SF-539 CNS) was > 100 µM, the TGI (SK-MEL-2 melanoma) was > 100 µM and the TGI (SK-MEL-28 melanoma) was > 100 µM. For the same compound, the TGI (SK-MEL-5 melanoma) was > 100 µM, the TGI (SK-OV-3 ovarian) was > 100 µM and the TGI (SN12C renal) was > 100 µM. For the same compound, the TGI (SNB-19 CNS) was > 100 µM, the TGI (SR leukemia) was > 100 µM and the TGI (SW-620 colon) was > 100 µM. The TGI (T-47D breast) was > 100 µM, the TGI (TK-10 renal) was > 100 µM and the TGI (U251 CNS) was > 100 µM. For the same compound, the TGI (UACC-257 melanoma) was > 100 µM, the TGI (UACC-62 melanoma) was > 100 µM and the TGI (UO-31 renal) was > 100 µM.

Reference: PubChem BioAssay (NCI)
